Reference: ChEMBL document CHEMBL1152560, “Substituted 2-arylbenzothiazoles as kinase inhibitors: hit-to-lead optimization” (Bioorg Med Chem, 2009)

Legend:
[1] = target: Protein kinase C eta type (Homo sapiens) (UniProt P24723); test: Residual activity of PKCeta at 1 uM by microplate scintillation counting
[2] = target: T1, Serine/threonine-protein kinase Nek11 (Homo sapiens) (UniProt Q8NG66); test: Residual activity of NEK11 at 0.1 uM by microplate scintillation counting
T1 sequence (whole entry): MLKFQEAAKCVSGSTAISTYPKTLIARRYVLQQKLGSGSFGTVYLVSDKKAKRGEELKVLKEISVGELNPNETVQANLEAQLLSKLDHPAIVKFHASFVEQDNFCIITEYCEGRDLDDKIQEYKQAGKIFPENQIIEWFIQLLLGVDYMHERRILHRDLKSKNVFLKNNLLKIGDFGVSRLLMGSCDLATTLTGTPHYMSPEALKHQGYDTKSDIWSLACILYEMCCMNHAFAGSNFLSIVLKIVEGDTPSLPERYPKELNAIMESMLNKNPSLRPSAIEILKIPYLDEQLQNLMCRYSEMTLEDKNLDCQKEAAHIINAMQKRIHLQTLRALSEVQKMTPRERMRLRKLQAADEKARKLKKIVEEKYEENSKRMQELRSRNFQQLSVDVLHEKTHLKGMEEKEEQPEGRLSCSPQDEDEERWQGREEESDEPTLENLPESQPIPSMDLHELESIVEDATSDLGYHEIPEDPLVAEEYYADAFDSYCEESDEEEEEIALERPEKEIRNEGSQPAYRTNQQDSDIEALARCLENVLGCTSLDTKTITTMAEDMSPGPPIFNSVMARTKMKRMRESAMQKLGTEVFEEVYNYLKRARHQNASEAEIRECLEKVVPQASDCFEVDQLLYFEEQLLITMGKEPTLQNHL

[3] = target: T2, Protein kinase C iota type (Homo sapiens) (UniProt P41743); test: Residual activity of PKCiota at 10 uM by microplate scintillation counting
T2 sequence (whole entry): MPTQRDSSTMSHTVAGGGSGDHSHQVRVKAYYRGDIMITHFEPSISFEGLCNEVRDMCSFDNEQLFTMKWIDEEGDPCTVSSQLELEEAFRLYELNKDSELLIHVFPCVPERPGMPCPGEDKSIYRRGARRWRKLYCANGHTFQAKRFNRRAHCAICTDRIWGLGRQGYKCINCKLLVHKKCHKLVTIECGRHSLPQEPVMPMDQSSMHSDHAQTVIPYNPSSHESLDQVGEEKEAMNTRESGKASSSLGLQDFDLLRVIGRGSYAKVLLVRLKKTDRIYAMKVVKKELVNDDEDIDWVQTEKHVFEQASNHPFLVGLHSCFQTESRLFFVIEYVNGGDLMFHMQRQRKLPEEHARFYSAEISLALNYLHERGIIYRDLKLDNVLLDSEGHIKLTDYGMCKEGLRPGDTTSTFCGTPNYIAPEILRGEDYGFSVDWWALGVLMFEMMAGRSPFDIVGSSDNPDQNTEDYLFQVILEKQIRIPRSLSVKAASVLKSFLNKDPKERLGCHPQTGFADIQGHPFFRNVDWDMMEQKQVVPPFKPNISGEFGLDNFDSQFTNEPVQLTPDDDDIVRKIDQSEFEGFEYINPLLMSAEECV

[4] = target: Serine/threonine-protein kinase WNK3 (Homo sapiens) (UniProt Q9BYP7); test: Residual activity of WNK3 at 0.1 uM by microplate scintillation counting
[5] = target: T3, Serine/threonine-protein kinase DCLK2 (Homo sapiens) (UniProt Q8N568); test: Residual activity of DCAMKL2 at 1 uM by microplate scintillation counting
T3 sequence (whole entry): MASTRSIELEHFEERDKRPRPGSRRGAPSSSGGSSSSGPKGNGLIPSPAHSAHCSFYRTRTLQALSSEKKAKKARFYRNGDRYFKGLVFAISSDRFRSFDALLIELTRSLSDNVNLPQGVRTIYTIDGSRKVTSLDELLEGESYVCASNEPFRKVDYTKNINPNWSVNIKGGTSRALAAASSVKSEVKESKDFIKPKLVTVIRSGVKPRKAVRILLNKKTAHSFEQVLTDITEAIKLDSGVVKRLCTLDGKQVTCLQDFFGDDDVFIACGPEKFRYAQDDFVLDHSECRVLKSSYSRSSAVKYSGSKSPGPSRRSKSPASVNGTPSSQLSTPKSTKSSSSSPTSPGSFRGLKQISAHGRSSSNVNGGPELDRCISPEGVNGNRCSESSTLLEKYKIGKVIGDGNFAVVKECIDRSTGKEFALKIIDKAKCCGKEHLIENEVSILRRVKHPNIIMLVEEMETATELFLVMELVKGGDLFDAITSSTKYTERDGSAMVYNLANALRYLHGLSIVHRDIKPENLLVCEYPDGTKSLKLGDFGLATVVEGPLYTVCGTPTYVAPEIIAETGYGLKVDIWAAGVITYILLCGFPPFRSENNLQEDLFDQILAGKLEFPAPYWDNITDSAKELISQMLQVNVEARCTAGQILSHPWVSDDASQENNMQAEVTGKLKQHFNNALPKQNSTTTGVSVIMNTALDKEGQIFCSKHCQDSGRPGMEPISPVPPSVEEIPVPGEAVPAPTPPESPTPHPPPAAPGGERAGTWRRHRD

[6] = target: Casein kinase I isoform epsilon (Homo sapiens) (UniProt P49674); test: Residual activity of CK1epsilon at 10 uM by microplate scintillation counting
[7] = target: Cyclin-dependent kinase 7/ cyclin H (Homo sapiens) (UniProt P51946+P50613); test: Residual activity of CDK7/CyclinH/MAT1 at 0.1 uM by microplate scintillation counting; type: protein-complex assay
[8] = target: Serine/threonine-protein kinase Nek6 (Homo sapiens) (UniProt Q9HC98); test: Residual activity of NEK6 at 10 uM by microplate scintillation counting
[9] = target: Serine/threonine-protein kinase N2 (Homo sapiens) (UniProt Q16513); test: Residual activity of PRK2 at 0.1 uM by microplate scintillation counting
[10] = target: T4, Serine/threonine-protein kinase 3 (Homo sapiens) (UniProt Q13188); test: Residual activity of MST2 at 0.1 uM by microplate scintillation counting
T4 sequence (whole entry): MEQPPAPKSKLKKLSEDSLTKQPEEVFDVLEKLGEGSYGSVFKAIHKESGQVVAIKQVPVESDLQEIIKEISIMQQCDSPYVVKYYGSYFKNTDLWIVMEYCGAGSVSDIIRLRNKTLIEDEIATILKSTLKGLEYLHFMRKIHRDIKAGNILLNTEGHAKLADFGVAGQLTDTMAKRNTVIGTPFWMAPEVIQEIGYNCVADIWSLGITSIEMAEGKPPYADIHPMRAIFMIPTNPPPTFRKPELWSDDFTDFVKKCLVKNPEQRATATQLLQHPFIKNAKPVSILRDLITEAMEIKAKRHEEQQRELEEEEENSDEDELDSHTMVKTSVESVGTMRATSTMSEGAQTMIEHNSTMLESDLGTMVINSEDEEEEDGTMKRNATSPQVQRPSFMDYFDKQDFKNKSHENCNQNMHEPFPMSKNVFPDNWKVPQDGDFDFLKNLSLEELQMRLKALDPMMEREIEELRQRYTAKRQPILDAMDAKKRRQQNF

Sequence of Protein kinase C eta type (Homo sapiens) (P24723 whole entry): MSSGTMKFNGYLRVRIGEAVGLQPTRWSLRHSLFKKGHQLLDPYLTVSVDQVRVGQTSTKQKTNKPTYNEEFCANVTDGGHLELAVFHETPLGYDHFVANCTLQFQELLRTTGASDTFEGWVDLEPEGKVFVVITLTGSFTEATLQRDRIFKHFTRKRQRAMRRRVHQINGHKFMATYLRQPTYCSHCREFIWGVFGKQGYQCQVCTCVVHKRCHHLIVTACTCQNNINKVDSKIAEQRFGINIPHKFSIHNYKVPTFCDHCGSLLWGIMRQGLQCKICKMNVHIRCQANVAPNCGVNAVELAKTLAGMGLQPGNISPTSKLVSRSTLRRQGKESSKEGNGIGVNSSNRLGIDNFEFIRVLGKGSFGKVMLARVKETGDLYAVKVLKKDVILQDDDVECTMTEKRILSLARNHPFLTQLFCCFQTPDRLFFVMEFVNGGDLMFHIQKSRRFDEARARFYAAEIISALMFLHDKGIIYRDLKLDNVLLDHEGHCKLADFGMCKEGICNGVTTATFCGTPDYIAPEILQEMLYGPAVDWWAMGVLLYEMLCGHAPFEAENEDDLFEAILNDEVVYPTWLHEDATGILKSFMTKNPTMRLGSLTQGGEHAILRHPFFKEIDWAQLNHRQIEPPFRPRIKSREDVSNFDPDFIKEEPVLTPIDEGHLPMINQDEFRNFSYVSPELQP
Sequence of Serine/threonine-protein kinase Nek6 (Homo sapiens) (Q9HC98 whole entry): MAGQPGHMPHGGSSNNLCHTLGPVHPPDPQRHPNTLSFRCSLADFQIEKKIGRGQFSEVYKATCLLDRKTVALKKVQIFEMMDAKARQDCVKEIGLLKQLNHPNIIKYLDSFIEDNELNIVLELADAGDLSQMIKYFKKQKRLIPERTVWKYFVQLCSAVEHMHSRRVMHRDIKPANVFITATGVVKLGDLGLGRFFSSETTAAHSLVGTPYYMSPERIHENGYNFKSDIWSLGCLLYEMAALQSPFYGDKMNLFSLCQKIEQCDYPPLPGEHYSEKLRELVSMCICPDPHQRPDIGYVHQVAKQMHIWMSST
Sequence of Serine/threonine-protein kinase WNK3 (Homo sapiens) (Q9BYP7 whole entry): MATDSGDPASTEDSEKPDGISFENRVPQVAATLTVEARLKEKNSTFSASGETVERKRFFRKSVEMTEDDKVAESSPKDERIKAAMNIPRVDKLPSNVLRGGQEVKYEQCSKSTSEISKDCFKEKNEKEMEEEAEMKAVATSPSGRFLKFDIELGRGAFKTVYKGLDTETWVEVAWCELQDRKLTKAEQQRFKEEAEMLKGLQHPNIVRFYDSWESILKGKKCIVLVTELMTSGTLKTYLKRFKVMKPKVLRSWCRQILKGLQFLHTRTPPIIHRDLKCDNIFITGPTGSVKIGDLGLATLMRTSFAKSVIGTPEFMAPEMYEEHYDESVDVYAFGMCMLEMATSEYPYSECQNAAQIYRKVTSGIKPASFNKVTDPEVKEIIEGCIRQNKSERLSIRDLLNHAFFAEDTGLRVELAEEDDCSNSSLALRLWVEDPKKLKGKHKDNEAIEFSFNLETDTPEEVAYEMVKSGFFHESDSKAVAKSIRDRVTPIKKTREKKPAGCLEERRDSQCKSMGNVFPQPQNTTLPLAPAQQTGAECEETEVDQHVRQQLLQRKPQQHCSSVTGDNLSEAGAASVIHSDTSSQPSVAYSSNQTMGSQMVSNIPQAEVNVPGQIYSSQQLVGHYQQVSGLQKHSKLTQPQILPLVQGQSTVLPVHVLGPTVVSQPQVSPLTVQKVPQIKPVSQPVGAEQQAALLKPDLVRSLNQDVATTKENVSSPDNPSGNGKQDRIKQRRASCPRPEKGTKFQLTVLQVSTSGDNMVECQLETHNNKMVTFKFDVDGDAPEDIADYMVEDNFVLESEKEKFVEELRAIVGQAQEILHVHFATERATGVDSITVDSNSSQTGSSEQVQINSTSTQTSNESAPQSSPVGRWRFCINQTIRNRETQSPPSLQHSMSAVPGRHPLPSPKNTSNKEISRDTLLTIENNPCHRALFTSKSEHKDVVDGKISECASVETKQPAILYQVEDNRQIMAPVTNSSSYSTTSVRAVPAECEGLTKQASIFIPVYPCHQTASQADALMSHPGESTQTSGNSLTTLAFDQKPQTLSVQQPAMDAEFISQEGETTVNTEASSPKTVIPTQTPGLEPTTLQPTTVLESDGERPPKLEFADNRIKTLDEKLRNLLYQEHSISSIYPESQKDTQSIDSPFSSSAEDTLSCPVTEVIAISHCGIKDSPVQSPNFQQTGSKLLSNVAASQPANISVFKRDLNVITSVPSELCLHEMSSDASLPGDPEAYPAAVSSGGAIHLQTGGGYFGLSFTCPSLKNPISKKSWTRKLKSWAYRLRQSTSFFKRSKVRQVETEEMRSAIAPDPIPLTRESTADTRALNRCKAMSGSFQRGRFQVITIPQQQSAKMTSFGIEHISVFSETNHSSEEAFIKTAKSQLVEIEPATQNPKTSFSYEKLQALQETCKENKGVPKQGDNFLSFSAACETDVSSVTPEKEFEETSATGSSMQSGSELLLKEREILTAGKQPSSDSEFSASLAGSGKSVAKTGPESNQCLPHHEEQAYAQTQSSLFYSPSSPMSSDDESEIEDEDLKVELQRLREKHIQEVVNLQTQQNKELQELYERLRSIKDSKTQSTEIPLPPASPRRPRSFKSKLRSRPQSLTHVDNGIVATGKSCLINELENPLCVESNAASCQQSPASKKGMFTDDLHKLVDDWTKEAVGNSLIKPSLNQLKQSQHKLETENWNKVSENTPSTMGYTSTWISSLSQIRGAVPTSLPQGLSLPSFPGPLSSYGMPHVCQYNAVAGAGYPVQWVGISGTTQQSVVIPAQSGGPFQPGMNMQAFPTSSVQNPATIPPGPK
Sequence of Casein kinase I isoform epsilon (Homo sapiens) (P49674 whole entry, looked up, canonical isoform): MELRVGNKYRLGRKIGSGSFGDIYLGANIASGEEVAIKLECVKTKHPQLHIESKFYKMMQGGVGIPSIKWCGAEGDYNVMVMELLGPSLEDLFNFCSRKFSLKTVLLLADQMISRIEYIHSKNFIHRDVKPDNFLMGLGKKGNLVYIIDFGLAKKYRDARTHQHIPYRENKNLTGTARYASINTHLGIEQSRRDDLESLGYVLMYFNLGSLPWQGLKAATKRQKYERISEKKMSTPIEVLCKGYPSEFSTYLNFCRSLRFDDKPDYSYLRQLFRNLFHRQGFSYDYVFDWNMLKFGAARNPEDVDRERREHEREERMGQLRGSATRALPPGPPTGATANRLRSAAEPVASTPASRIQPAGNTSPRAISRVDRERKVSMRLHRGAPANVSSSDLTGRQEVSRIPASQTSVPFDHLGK
Sequence of Serine/threonine-protein kinase N2 (Homo sapiens) (Q16513 whole entry, looked up): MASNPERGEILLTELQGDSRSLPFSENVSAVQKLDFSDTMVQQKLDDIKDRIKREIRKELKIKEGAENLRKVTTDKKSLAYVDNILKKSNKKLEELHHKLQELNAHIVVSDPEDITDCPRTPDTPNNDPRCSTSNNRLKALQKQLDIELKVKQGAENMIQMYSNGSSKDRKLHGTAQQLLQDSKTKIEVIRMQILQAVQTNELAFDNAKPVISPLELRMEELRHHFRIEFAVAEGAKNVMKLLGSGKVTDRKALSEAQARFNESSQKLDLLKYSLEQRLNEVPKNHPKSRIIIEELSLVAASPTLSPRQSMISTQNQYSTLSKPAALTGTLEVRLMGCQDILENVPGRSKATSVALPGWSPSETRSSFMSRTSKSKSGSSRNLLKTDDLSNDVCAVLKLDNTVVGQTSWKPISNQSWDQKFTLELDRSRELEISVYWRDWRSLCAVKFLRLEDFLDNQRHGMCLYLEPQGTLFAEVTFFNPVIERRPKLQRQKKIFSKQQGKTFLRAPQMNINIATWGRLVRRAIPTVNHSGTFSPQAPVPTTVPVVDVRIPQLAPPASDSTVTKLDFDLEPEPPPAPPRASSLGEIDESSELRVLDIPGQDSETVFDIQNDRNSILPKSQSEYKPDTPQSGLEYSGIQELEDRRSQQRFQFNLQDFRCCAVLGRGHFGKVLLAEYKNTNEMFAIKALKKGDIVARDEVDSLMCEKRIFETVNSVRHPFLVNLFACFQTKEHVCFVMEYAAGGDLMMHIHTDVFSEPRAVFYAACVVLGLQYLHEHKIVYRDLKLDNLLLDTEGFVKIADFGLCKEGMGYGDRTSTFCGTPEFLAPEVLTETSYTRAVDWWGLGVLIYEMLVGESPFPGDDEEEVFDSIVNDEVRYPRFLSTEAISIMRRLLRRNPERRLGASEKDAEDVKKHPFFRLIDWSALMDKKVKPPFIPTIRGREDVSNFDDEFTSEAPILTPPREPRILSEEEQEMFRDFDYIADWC

Row | Structure (SMILES) | residual activity [1] [%] | residual activity [2] [%] | residual activity [3] [%] | residual activity [4] [%] | residual activity [5] [%] | residual activity [6] [%] | residual activity [7] [%] | residual activity [8] [%] | residual activity [9] [%] | residual activity [10] [%]
1 | COc1cc2c(Oc3ccc(-c4nc5ccccc5s4)cc3)ncnc2cc1OCCCN1CCN(C)CC1 | 92 | 95 | 44 | 90 | 80 | 156 | 104 | 96 | 65 | 90
2 | COc1cc2c(Oc3ccc(-c4nc5ccccc5s4)cc3F)ncnc2cc1OCCCN1CCN(C)CC1 | 97 | 94 | 46 | 84 | 76 | 97 | 86 | 101 | 72 | 92
3 | COc1cc2c(Oc3ccc(-c4nc5ccccc5s4)cc3)ncnc2cc1OCCCN1CCCC1 | 122 | 103 | 51 | 94 | 71 | 147 | 97 | 94 | 99 | 82
